For one experiment, the target named is BRG-1 (Homo sapiens, UniProt P51532). As to the kind of experiment: ATPase catalytic activity assay of BRG-1 (ADP-Glo). It is filed as biochemical. The note with it: ATPase catalytic activity, ADP-Glo; for IC50: read-out: BRG1 IC50 (μM)*; for Emax: read-out: BRG1 Max % Inhibition. In outline:
(§1)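 Two room-temperature incubations follow the reaction: 40 min to eliminate unused ATP, then 60 min to turn ADP into ATP driving luciferase light output. Activity is read as luminescence proportional to ADP formed.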
(In general: ADP-Glo first removes unused ATP, then detects ADP through luciferase.)

The next experiment has as its target BRM (Homo sapiens, UniProt P51531). As to the kind of experiment: ATPase catalytic activity assay of BRM (ADP-Glo). The experiment is classed as biochemical. The following applies: for IC50: read-out: BRM IC50 (μM)*. In outline:
as §1

Where two headings read alike, the source gives them in different places.

Chain of BRG-1 (P51532 whole entry): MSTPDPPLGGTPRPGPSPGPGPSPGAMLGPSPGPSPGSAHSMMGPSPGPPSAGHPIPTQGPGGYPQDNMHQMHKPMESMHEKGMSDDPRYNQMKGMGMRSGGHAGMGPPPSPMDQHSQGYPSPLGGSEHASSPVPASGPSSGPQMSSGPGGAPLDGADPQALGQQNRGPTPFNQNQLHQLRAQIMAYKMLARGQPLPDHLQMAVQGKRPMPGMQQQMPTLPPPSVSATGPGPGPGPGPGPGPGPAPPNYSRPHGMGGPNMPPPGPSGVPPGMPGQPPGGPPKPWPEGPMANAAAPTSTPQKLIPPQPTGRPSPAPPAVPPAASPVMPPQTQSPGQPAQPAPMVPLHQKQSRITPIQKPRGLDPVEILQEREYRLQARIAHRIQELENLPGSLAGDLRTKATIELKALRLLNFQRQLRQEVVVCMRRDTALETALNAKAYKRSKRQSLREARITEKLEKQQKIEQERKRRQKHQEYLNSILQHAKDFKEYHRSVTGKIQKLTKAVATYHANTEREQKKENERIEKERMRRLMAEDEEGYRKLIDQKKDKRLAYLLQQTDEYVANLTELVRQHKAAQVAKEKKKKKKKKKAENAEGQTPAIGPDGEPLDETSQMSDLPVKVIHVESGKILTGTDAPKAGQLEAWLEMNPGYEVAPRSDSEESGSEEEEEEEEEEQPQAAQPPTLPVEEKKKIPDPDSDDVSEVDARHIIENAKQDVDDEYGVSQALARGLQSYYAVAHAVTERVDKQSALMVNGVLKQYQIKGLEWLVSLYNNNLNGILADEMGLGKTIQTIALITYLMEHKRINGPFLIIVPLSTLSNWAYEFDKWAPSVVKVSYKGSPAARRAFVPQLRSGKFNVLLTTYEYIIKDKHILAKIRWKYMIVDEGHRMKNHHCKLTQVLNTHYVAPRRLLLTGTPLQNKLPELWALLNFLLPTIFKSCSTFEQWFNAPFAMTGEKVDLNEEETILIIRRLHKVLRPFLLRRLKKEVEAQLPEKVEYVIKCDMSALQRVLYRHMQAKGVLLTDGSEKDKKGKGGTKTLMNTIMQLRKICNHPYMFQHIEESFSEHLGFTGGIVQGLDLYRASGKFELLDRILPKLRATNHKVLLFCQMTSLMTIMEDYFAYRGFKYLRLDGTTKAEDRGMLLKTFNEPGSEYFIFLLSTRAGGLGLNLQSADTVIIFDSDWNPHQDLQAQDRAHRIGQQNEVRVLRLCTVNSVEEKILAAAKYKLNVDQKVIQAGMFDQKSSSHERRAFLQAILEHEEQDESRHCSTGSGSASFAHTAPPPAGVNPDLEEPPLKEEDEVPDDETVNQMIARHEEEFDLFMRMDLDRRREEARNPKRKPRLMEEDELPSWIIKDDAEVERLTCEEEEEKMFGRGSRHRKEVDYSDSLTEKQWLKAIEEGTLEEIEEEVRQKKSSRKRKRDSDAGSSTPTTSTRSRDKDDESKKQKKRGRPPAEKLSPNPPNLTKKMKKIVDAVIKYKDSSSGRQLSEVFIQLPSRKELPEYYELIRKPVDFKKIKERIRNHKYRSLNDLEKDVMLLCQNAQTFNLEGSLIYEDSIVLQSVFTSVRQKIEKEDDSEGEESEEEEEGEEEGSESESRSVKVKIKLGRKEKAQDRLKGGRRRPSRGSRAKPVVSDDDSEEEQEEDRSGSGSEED
Chain of BRM (P51531 whole entry): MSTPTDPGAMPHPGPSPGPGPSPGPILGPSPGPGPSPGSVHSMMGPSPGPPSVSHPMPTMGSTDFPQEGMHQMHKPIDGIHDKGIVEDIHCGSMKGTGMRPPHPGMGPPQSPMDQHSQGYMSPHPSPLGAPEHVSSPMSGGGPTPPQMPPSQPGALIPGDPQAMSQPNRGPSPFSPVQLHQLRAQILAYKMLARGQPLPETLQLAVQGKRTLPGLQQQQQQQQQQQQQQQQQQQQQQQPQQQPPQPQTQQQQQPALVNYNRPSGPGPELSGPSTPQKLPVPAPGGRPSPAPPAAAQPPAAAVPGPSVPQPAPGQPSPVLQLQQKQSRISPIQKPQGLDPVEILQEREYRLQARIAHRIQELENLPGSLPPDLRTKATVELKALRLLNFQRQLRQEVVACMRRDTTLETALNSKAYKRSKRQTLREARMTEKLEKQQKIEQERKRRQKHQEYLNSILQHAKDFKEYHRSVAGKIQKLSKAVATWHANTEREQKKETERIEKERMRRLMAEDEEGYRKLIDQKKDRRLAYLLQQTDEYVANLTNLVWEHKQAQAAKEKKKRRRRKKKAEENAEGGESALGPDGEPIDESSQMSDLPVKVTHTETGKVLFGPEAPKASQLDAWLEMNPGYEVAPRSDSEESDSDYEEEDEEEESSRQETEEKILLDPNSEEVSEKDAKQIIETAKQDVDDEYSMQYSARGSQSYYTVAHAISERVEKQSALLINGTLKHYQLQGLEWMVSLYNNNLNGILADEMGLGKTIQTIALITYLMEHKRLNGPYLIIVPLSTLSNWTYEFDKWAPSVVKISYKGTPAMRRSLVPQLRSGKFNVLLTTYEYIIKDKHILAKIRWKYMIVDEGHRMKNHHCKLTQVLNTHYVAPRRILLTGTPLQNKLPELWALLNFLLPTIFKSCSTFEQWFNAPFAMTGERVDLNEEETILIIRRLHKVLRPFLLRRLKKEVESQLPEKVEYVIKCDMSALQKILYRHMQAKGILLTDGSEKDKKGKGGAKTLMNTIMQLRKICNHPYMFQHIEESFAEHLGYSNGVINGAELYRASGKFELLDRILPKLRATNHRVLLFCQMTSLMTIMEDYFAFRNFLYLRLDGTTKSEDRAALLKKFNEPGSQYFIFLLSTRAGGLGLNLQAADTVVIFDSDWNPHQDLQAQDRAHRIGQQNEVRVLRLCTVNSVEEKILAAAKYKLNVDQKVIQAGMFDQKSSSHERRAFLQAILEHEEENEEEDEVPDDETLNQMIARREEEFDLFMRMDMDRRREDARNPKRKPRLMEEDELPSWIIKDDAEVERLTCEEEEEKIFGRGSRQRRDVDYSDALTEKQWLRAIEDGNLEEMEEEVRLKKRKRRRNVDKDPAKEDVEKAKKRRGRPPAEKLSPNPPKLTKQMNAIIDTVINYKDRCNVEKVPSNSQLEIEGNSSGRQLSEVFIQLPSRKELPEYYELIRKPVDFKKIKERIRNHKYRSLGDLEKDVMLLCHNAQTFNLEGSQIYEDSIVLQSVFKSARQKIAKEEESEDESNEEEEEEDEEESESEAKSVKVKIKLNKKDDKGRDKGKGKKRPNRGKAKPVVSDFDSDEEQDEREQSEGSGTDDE

In the case of `C[C@@H]1CN(c2cccc(-c3csc(NC(=O)CNC(=O)c4ccc5c(c4)[C@@]4(CCO4)COC5)n3)n2)C[C@H](C)O1` [Compound 350, (S)-N-(2-((4-(6-((cis)-2,6-dimethylmorpholino)pyridin-2-yl)thiazol-2-yl)amino)-2-oxoethyl)spiro[isochromane-4,2′-oxetane]-6-carboxamide], at BRG-1, the IC50 – broadly, the concentration that inhibits the measured activity by half – lay within 1 to 5 µM and the Emax was > 95%. On BRM, the “BRM Max % Inhibition” value is given as >95% and the half-inhibitory concentration (IC50) is < 0.1 µM.

On to `C[C@@H]1CN(c2cccc(-c3csc(NC(=O)[C@H](CO)NC(=O)c4ccnc(C(C)(C)C)c4)n3)c2)C[C@H](C)O1` [Compound 434, 2-(tert-butyl)-N-((S)-1-((4-(3-((cis)-2,6-dimethylmorpholino)phenyl)thiazol-2-yl)amino)-3-hydroxy-1-oxopropan-2-yl)isonicotinamide], for which, at BRG-1 (30 nM BRG-1, 400 μM ATP), the half-maximal inhibitory concentration (IC50) is 1 to 5 µM and the Emax is > 90%. On BRM (30 nM BRM, 400 μM ATP), the “BRM Max % Inhibition” value is listed as >90% and the concentration for half-maximal inhibition (IC50) was in the range of 0.1 to 1 µM.

`C[C@@H]1CN(c2cccc(-c3csc(NC(=O)CNC(=O)c4ccc5c(c4)[C@](C)(CO)CC5)n3)n2)C[C@H](C)O1` [Compound 223, (R)-N-(2-((4-(6-((cis)-2,6-dimethylmorpholino)pyridin-2-yl)thiazol-2-yl)amino)-2-oxoethyl)-3-(hydroxymethyl)-3-methyl-2,3-dihydro-1H-indene-5-carboxamide]: on BRG-1, the concentration for half-maximal inhibition (IC50) lay within 1 to 5 µM and the Emax is > 80%. On BRM, the “BRM Max % Inhibition” value was >95% and the half-inhibitory concentration (IC50) was < 0.1 µM.

Regarding `CC(C)S(=O)(=O)c1cc(CO)cc(C(=O)NCC(=O)Nc2nc(-c3cccc(-c4ccncc4)c3)cs2)c1` [Compound 15, 3-(hydroxymethyl)-5-(isopropylsulfonyl)-N-(2-oxo-2-((4-(3-(pyridin-4-yl)phenyl)thiazol-2-yl)amino)ethyl)benzamide], on BRG-1, the concentration for half-maximal inhibition (IC50) is > 5 µM and the Emax was > 40%. On BRM, the “BRM Max % Inhibition” value is >50% and the IC50 was 1 to 5 µM.

On to `COc1cccc(-c2csc(NC(=O)CNC(=O)c3ccc4c(c3)C(C)(C#N)CCN4C)n2)c1` (stereo not shown) [Compound 394, 4-cyano-N-(2-((4-(3-methoxyphenyl)thiazol-2-yl)amino)-2-oxoethyl)-1,4-dimethyl-1,2,3,4-tetrahydroquinoline-6-carboxamide], for which, on BRG-1, the IC50 was > 5 µM and the Emax is > 80%. For the same compound, at BRM, the “BRM Max % Inhibition” value is on record as >80% and the half-maximal inhibitory concentration (IC50) was 0.1 to 1 µM.

Consider `C[C@H](CO)S(=O)(=O)c1cccc(C(=O)NCC(=O)Nc2nc(-c3cccc(-c4ccncc4)c3)cs2)c1` [Compound 116, (R)-3-((1-hydroxypropan-2-yl)sulfonyl)-N-(2-oxo-2-((4-(3-(pyridin-4-yl)phenyl)thiazol-2-yl)amino)ethyl)benzamide], for which, at BRG-1, the half-inhibitory concentration (IC50) fell in the range of 1 to 5 µM and the Emax was > 40%. Also, on BRM, the “BRM Max % Inhibition” value is reported as >80% and the IC50 lay in the range of 0.1 to 1 µM.

Regarding `C[C@@H]1CN(c2cccc(-c3csc(NC(=O)CNC(=O)c4ccc5c(c4)C(C)(CO)COC5)n3)c2)C[C@H](C)O1` (stereo in doubt) [Compound 373, (S)-N-(2-((4-(3-((cis)-2,6-dimethylmorpholino)phenyl)thiazol-2-yl)amino)-2-oxoethyl)-4-(hydroxymethyl)-4-methylisochromane-6-carboxamide], at BRG-1, the IC50 is 1 to 5 µM and the Emax was > 90%. At BRM, the “BRM Max % Inhibition” value was >90% and the IC50 lay in the range of 0.1 to 1 µM.

Take `CCc1ccc(C(=O)NCC(=O)Nc2nc(-c3cccc(-c4ccn(C)n4)c3)cs2)cc1C(C)(C)CN` [Compound 71, 3-(1-amino-2-methylpropan-2-yl)-4-ethyl-N-(2-((4-(3-(1-methyl-1H-pyrazol-3-yl)phenyl)thiazol-2-yl)amino)-2-oxoethyl)benzamide]: at BRG-1, the IC50 is > 5 µM and the Emax is > 30%. Besides, at BRM, the “BRM Max % Inhibition” value is on record as >70% and the half-inhibitory concentration (IC50) lay in the range of 1 to 5 µM.

Consider `Cc1cc(-c2cccc(-c3csc(NC(=O)CNC(=O)c4cc(C)c(C)c(C(C)(C)CN)c4)n3)c2)cc(C)n1` [Compound 245, 3-(2-amino-1,1-dimethyl-ethyl)-N-[2-[[4-[3-(2,6-dimethyl-4-pyridyl)phenyl]thiazol-2-yl]amino]-2-oxo-ethyl]-4,5-dimethyl-benzamide], for which, on BRG-1, the IC50 lay in the range of 1 to 5 µM and the Emax was > 70%. Further, on BRM, the “BRM Max % Inhibition” value was >95% and the IC50 is < 0.1 µM.

Regarding `Cn1ccc2ccc(-c3csc(NC(=O)CNC(=O)c4ccc5c(c4)[C@](C)(CO)CC5)n3)cc2c1=O` [Compound 177, (R)-3-(hydroxymethyl)-3-methyl-N-(2-((4-(2-methyl-1-oxo-1,2-dihydroisoquinolin-7-yl)thiazol-2-yl)amino)-2-oxoethyl)-2,3-dihydro-1H-indene-5-carboxamide], on BRG-1, the half-inhibitory concentration (IC50) fell in the range of 0.1 to 1 µM and the Emax is > 90%. Besides, on BRM, the “BRM Max % Inhibition” value is on record as >95% and the IC50 is < 0.1 µM.

Turning to `C[C@@]1(F)COCc2ccc(C(=O)NCC(=O)Nc3nc(-c4ccccc4)cs3)cc21` [Compound 303, (S)-4-fluoro-4-methyl-N-(2-oxo-2-((4-phenylthiazol-2-yl)amino)ethyl)isochromane-6-carboxamide], on BRG-1, the IC50 fell in the range of 0.1 to 1 µM and the Emax is > 95%. Further, on BRM, the “BRM Max % Inhibition” value is given as >95% and the IC50 is < 0.1 µM.

As to `C[C@@H]1CN(c2cccc(-c3csc(NC(=O)CNC(=O)c4cccc(C5(F)CC6(COC6)C5)c4)n3)n2)C[C@H](C)O1` [Compound 318, N-(2-((4-(6-((cis)-2,6-dimethylmorpholino)pyridin-2-yl)thiazol-2-yl)amino)-2-oxoethyl)-3-(6-fluoro-2-oxaspiro[3.3]heptan-6-yl)benzamide], on BRG-1, the IC50 is > 5 µM and the Emax is > 90%. Also, at BRM, the “BRM Max % Inhibition” value is recorded as >90% and the IC50 fell in the range of 0.1 to 1 µM.

For the compound `CC1(C)c2cc(C(=O)NCC(=O)Nc3nc(-c4cccc(-c5ccncc5)c4)cs3)ccc2C[C@H]1N` [Compound 210, (R)-2-amino-3,3-dimethyl-N-(2-oxo-2-((4-(3-(pyridin-4-yl)phenyl)thiazol-2-yl)amino)ethyl)-2,3-dihydro-1H-indene-5-carboxamide], on BRG-1, the 50% inhibitory concentration (IC50) lay within 0.1 to 1 µM and the Emax was > 80%. Also, at BRM, the “BRM Max % Inhibition” value was >95% and the IC50 was < 0.1 µM.

Turning to `C[C@@H]1CN(c2cccc(-c3csc(NC(=O)CNC(=O)c4ccc5c(c4)C(C#N)(CO)COC5)n3)c2)C[C@H](C)O1` (stereo partly drawn) [Compound 374, 4-cyano-N-(2-((4-(3-((cis)-2,6-dimethylmorpholino)phenyl)thiazol-2-yl)amino)-2-oxoethyl)-4-(hydroxymethyl)isochromane-6-carboxamide], on BRG-1, the IC50 is 0.1 to 1 µM and the Emax is > 95%. Also, at BRM, the “BRM Max % Inhibition” value is on record as >95% and the IC50 was < 0.1 µM.

Regarding `C[C@@]1(C#N)COCc2ccc(C(=O)NC3(C(=O)Nc4nc(-c5cccc(C(F)F)c5)cs4)CC3)cc21` [Compound 333, (R)-4-cyano-N-(1-((4-(3-(difluoromethyl)phenyl)thiazol-2-yl)carbamoyl)cyclopropyl)-4-methylisochromane-6-carboxamide], at BRG-1, the IC50 lay within 1 to 5 µM and the Emax was > 75%. Further, on BRM, the “BRM Max % Inhibition” value was >75% and the half-maximal inhibitory concentration (IC50) is 0.1 to 1 µM.

Regarding `C[C@@H]1CN(c2cccc(-c3csc(NC(=O)CNC(=O)c4ccc5c(c4)[C@@]4(CCC[C@@H]4O)CC5)n3)c2)C[C@H](C)O1` [Compound 186, (1R,2S)-N-(2-((4-(3-((cis)-2,6-dimethylmorpholino)phenyl)thiazol-2-yl)amino)-2-oxoethyl)-2-hydroxy-2′,3′-dihydrospiro[cyclopentane-1,1′-indene]-6′-carboxamide], on BRG-1, the IC50 lay within 1 to 5 µM and the Emax was > 70%. At BRM, the “BRM Max % Inhibition” value is given as >95% and the IC50 was < 0.1 µM.

For `COc1cccc(-c2csc(NC(=O)CNC(=O)c3ccc4c(c3)C(C)(C#N)CCN4)n2)c1` (stereo not shown) [Compound 415, 4-cyano-N-(2-((4-(3-methoxyphenyl)thiazol-2-yl)amino)-2-oxoethyl)-4-methyl-1,2,3,4-tetrahydroquinoline-6-carboxamide], at BRG-1 (30 nM BRG-1, 400 μM ATP), the concentration for half-maximal inhibition (IC50) was > 5 µM and the Emax is > 90%. Besides, on BRM (30 nM BRM, 400 μM ATP), the “BRM Max % Inhibition” value was >90% and the half-maximal inhibitory concentration (IC50) lay within 0.1 to 1 µM.

`COc1nc(C)cc(-c2cccc(-c3csc(NC(=O)CNC(=O)c4cccc(S(=O)(=O)C(C)C)c4)n3)c2)n1` [Compound 122, 3-isopropylsulfonyl-N-[2-[[4-[3-(2-methoxy-6-methyl-pyrimidin-4-yl)phenyl]thiazol-2-yl]amino]-2-oxoethyl]benzamide]: at BRG-1, the IC50 is < 0.1 µM and the Emax is > 95%. At BRM, the “BRM Max % Inhibition” value is given as >95% and the IC50 is < 0.1 µM.

For the compound `Cn1ncc(-c2cccc(-c3csc(NC(=O)CNC(=O)c4cccc(C(C)(C)CO)c4)n3)c2)n1` [Compound 185, 3-(1-hydroxy-2-methylpropan-2-yl)-N-(2-((4-(3-(2-methyl-2H-1,2,3-triazol-4-yl)phenyl)thiazol-2-yl)amino)-2-oxoethyl)benzamide], at BRG-1, the half-maximal inhibitory concentration (IC50) was in the range of 1 to 5 µM and the Emax is > 80%. On BRM, the “BRM Max % Inhibition” value is >95% and the IC50 lay within 0.1 to 1 µM.

The record behind these values is US12685735B2 (Foghorn Therapeutics Inc., priority 2020, dated 2026).
